Measured values: patent US9999656B2, “Treatment of short bowel syndrome patients with colon-in-continuity” (Shire-NPS Pharmaceuticals, Inc., priority 2004, dated 2018)

Key:
[1] = system: patients with short bowel syndrome (SBS); test: 72-hour nutrient balance studies in open-label pilot study of teduglutide; assay type: in vivo, human
Protocol: This was an open-label, pilot study to determine the safety and effect of teduglutide in patients with short bowel syndrome (SBS). The patient's history was reviewed and a physical examination performed to determine eligibility before inclusion in the study. Estimated residual small intestine and colon lengths were determined by reviewing operative reports and available radiographic studies. Eligible patients were admitted as inpatients to hospital wards or General Clinic Research Centers (GCRC) on three separate occasions, 18 days apart, for the last four days and three nights of the baseline period and at the end of the treatment and follow-up periods. Treatment consisted of recombinant teduglutide (supplied by NPS Allelix, Mississauga, ON, Canada) formulated as a lyophilized powder with L-histidine, mannitol, and monobasic and dibasic sodium phosphate (Lot 8502901). Water was added to reconstitute the drug for administration by subcutaneous (s.c.) injections in the abdomen or thigh. Ten SBS patients with jejunostomy received 0.03 mg/kg/d, 0.10 mg/kg/d or 0.15 mg/kg/d once daily for 21 days. Five SBS patients with ≥50% colon-in-continuity received teduglutide 0.10 mg/kg/d once daily for 21 days.
The 72-hour nutrient balance studies were completed with each patient eating their usual diet, calculated from a seven-day food diary completed by the patient during the screening period. It was intended that patients eat the same quantity and quality of food and beverages during each admission. During the 72-hour balance periods, all oral intake (duplicate meals and beverages and declined food), fecal/stomal output, and urine were collected and weighed. All stool samples were refrigerated during the collection period. Stools and diets were separately homogenized and analyzed for energy content (by bomb calorimetry), nitrogen (by the macro-Kjeldahl's method), fat (by the gravimetric technique), and sodium and potassium (by atomic absorption).
Using the SAS (Version 8.2; SAS Institute, Cary, N.C.) statistical program, a Student's paired t test was employed that compared treatment to baseline values, and follow-up to baseline values. No comparisons were made between patients on different doses or with different anatomy due to the limited number of patients in the study. Data are expressed as mean±SD. A value of p<0.05 was considered significant.

[2] = system: intestinal mucosa of SBS patients; test: Morphological analysis of intestinal biopsies (villus height, crypt depth, mitotic index); assay type: in vivo, human
Protocol: Endoscopic examinations were performed in each subject at the completion of baseline, treatment and follow-up phases. All tissue samples for measurement of villus height and crypt depth were prepared and analyzed in a blinded fashion by the same pathologist. Villus height and crypt depth were measured using light microscopy (eyepiece micrometer) as the mean of ten well-oriented villi and crypts. The number of mitotic figures per 100 crypt epithelial cells was calculated.

[3] = Half-life / AUC (pharmacokinetics); assay type: in vivo
Protocol: This greater effect could be related to differences in dose and half-life of GLP-2 and teduglutide, respectively. In the pilot study with native GLP-2, 400 μg was given twice daily (corresponding to 0.013±0.002 mg/kg/day, a range of 0.011-0.017 mg/kg/day). The teduglutide doses in the current study were 3-10 times higher, ranging from 0.03 to 0.15 mg/kg/day. […] If area under the curve (AUC) is critical for the wet weight absorption effect, the AUC during teduglutide treatment may well be 200 times greater than the AUC when using native GLP-2. In this study, effects of teduglutide on energy and macronutrient absorption were minor compared to effects on wet weight absorption. […] Nonetheless, the effect of teduglutide on absolute energy absorption is 1.5 to 4-fold higher than with native GLP-2 (441±634 kJ/day ([105±151 kcal/day] p=0.09) at the given doses and treatment periods. Thus, in contrast to H2-receptor antagonists, proton-pump inhibitors and octreotide that only affect wet weight absorption, native GLP-2 and teduglutide seem to affect both intestinal wet weight and energy absorption, with an additional positive effect on wet weight absorption in patients already treated with these non-GLP-2 agonists.

[4] = Body weight following teduglutide treatment; assay type: in vivo, human; settings: not significant (p=0.120)
[5] = Group 3 SBS ≥50% colon-in-continuity, of N=5
[6] = Group 4 SBS high dietary compliance, N=10, 21 days, Days 18-21 vs baseline
[7] = Group 4 SBS high dietary compliance, N=10, follow-up Days 39-42 vs baseline
[8] = Group 4 SBS high dietary compliance, of N=10
[9] = jejunum / small intestine biopsies, Group 2 end-jejunostomy

## CC[C@H](C)[C@H](NC(=O)[C@H](Cc1ccccc1)NC(=O)[C@H](CC(=O)O)NC(=O)[C@H](CCCNC(=N)N)NC(=O)[C@H](C)NC(=O)[C@H](C)NC(=O)[C@H](CC(C)C)NC(=O)[C@H](CC(N)=O)NC(=O)[C@H](CC(=O)O)NC(=O)[C@H](CC(C)C)NC(=O)[C@@H](NC(=O)[C@@H](NC(=O)[C@H](CC(N)=O)NC(=O)[C@H](CCSC)NC(=O)[C@H](CCC(=O)O)NC(=O)[C@H](CC(=O)O)NC(=O)[C@H](CO)NC(=O)[C@H](Cc1ccccc1)NC(=O)[C@H](CO)NC(=O)CNC(=O)[C@H](CC(=O)O)NC(=O)CNC(=O)[C@@H](N)Cc1c[nH]cn1)[C@@H](C)O)[C@@H](C)CC)C(=O)N[C@@H](CC(N)=O)C(=O)N[C@@H](Cc1c[nH]c2ccccc12)C(=O)N[C@@H](CC(C)C)C(=O)N[C@H](C(=O)N[C@@H](CCC(N)=O)C(=O)N[C@H](C(=O)N[C@@H](CCCCN)C(=O)N[C@H](C(=O)N[C@H](C(=O)N[C@@H](CC(=O)O)C(=O)O)[C@@H](C)O)[C@@H](C)CC)[C@@H](C)O)[C@@H](C)CC [teduglutide, [Gly2]hGLP-2]
[1]; [5]
  Wet Weight Absorption (g/day), Patients With Beneficial Effect: 5
  Wet Weight Fecal, Patients With Beneficial Effect: 5
[1]; Group 3 SBS ≥50% colon-in-continuity, 21-day treatment, stated as decrease
  decrease in fecal wet weight compared to baseline: 822 ± 341 g/day
[1]; [6]
  Energy Absorption (% of intake), Effect of Treatment (Treatment minus Baseline) mean ± SD: 8±11 % of intake
  Energy Absorption, Effect of Treatment (Treatment minus Baseline) mean ± SD: 963 ± 1290 kJ/day
  Energy Fecal, Effect of Treatment (Treatment minus Baseline) mean ± SD: -1060 ± 1083 kJ/day
  Urine Wet Weight, Effect of Treatment (Treatment minus Baseline) mean ± SD: 725 ± 394 g/day
  Wet Weight Absorption (% of intake), Effect of Treatment (Treatment minus Baseline) mean ± SD: 23 ± 16 % of intake
  Wet Weight Absorption, Effect of Treatment (Treatment minus Baseline) mean ± SD: 746 ± 436 g/day
  Wet Weight Fecal, Effect of Treatment (Treatment minus Baseline) mean ± SD: -769 ± 447 g/day
[1]; [7]
  Energy Absorption (% of intake), Effect at Follow up (Follow up minus Baseline) mean ± SD: 3 ± 16 % of intake
  Energy Absorption, Effect at Follow up (Follow up minus Baseline) mean ± SD: 452 ± 1211 kJ/day
  Energy Fecal, Effect at Follow up (Follow up minus Baseline) mean ± SD: -98 ± 1674 kJ/day
  Urine Wet Weight, Effect at Follow up (Follow up minus Baseline) mean ± SD: 30 ± 285 g/day
  Wet Weight Absorption (% of intake), Effect at Follow up (Follow up minus Baseline) mean ± SD: 0 ± 27 % of intake
  Wet Weight Absorption, Effect at Follow up (Follow up minus Baseline) mean ± SD: 24 ± 576 g/day
  Wet Weight Fecal, Effect at Follow up (Follow up minus Baseline) mean ± SD: 93 ± 500 g/day
[1]; [8]
  Energy Absorption (% of intake), Patients With Beneficial Effect: 9
  Energy Absorption (kJ/day), Patients With Beneficial Effect: 9
  Energy Fecal, Patients With Beneficial Effect: 8
  Urine Wet Weight, Patients With Beneficial Effect: 10
  Wet Weight Absorption (% of intake), Patients With Beneficial Effect: 9
  Wet Weight Absorption (g/day), Patients With Beneficial Effect: 9
  Wet Weight Fecal, Patients With Beneficial Effect: 9
[1]; Group 4 SBS high dietary compliance, stated as reduction
  decrease in fecal energy excretion compared to baseline: 1060 ± 1083 kJ/day
[1]; SBS patient population
  improved wet weight absorption: 0.75 L
[1]; at the given doses and treatment periods
  effect on absolute energy absorption relative to native GLP-2: 1.5 to 4 fold
[1]; follow-up after cessation of dosing
  reversal of changes at follow-up: Most changes in intestinal absorption and histology related to teduglutide treatment had reversed at follow-up
[1]; in vivo
  effects on wet weight absorption relative to native GLP-2 pilot study: almost two-fold
[1]; of 15 SBS patients
  number of SBS patients in whom absolute wet weight absorption increased as a percent of intake: 13
  number of SBS patients with decreases in energy excretion: 12
  number of SBS patients with increased absolute wet weight absorption compared to baseline: 15
  number of SBS patients with increased urine weight: 13
[2]; Group 3 colon-in-continuity
  sets of colonic biopsies with increased crypt depth: four of five
[2]; colonic biopsies, Group 3 colon-in-continuity, not significant (p=0.170)
  increase in mitotic index (colonic biopsies): 76±112%
[2]; colonic biopsies, Group 3 colon-in-continuity, not significant (p=0.330)
  mean increase in colonic crypt depth: 13±22%
[2]; [9]
  increase in crypt depth: 22±18%
  increase in mitotic index: 115±108%
  increase in villus height: 38±45%
[2]; of the 8 Group 2 patients who were biopsied
  number of patients with significant histological changes in the jejunum: 7
[3]; 'may well be', estimate
  AUC during teduglutide treatment relative to AUC using native GLP-2: ~200 times
[3]; human, plasma, teduglutide, approximately
  half-life: 0.9 to 2.3 h
[4]
  increase in body weight following teduglutide treatment: 0.9 ± 2.1 kg
